{"source": "patent US4770998A", "about": "“Biochemical assay of aldehydes” (Mobil Oil Corporation, priority 1985, dated 1988)", "key": {"[1]": {"test_system": "Mouse lymphoma L5178Y cells (clone 3.7.2C)", "assay": "Mouse lymphoma mutagenicity assay (TK locus) with total growth, with S-9 activation, with FDH plus NAD", "settings": "2.5 and 5.0 ug/ml", "method": "Mouse lymphoma L5178Y cells (clone 3.7.2C) ATCC CRL 9518 are preferred since these indicator cells are useful for mutagenicity as well as for toxicity assay.\nThe L5178Y mouse lymphoma indicator cells (clone 3.7.2C) are stored in liquid nitrogen. Cultures are thawed and are maintained in logarithmic growth by serial subculturing for up to six weeks. Cultures are grown at 37° C. in either a shaker incubator or a roller-harvester incubator. […] Cultures are cleansed on a weekly basis, as described by Clive et al. (1979), to reduce the frequency of spontaneous TK-/- mutants and thus maintain minimum mutant frequencies in the negative controls.\nThe medium for suspension culture of the cells is Fischer's medium (for leukemic mice) supplemented with heat-inactivated horse serum (10%, v/v), sodium pyruvate (1 mM) and Pluronic (0.1%, w/v). […]\nLogarithmically growing cultures of recently cleansed lymphoma cells are counted and adjusted to 1×10^6 cells/ml for use in the assays. […]\nAn expression period of 2 days is used to allow recovery, growth and expression of the TK-/- phenotype. Cell population densities will be determined on Day 1 (approximately 24 hours after treatment) and is adjusted to 3×10^5 cells/ml to maintain optimal growth rates. Cell population densities are then determined on Day 2 (approximately 44 hours after treatment), and appropriated cultures selected for mutant analysis. […]"}, "[2]": {"test_system": "Mouse lymphoma L5178Y cells (clone 3.7.2C)", "assay": "Mouse lymphoma mutagenicity assay (TK locus) with total growth, nonactivated (without S-9), with and without FDH plus NAD", "type": "cell-based", "description": "All tests preferably are performed in duplicate.\nIn this example the dose-dependent mutagenic effect of formaldehyde on lymphoma cultures, both with and without FDH plus NAD, was investigated in the absence of S-9 activation."}, "[3]": {"settings": "known stoichiometric release; cited from earlier work"}}}
{"compound": "Cc1c2ccccc2c(C)c2c1ccc1ccccc12", "note": "[DMBA, 7,12-dimethylbenz[a]anthracene]", "values": [{"measurement": "reduction of mutagenicity with addition of FDH plus NAD", "setting": "[1]", "value": "No reduction of toxicity or mutagencity"}, {"measurement": "reduction of toxicity with addition of FDH plus NAD", "setting": "[1]", "value": "No reduction of toxicity or mutagencity"}]}
{"compound": "CCOS(C)(=O)=O", "note": "[EMS, ethylmethane sulfonate]", "values": [{"measurement": "reduction of mutagenicity with addition of FDH plus NAD", "setting": "[2]; 0.5 and 1.0 ul/ml, without S-9", "value": "No reduction of toxicity or mutagenicity"}, {"measurement": "reduction of toxicity with addition of FDH plus NAD", "setting": "[2]; 0.5 and 1.0 ul/ml, without S-9", "value": "No reduction of toxicity or mutagenicity"}]}
{"compound": "O=[N+]([O-])C(CO)(CO)CO", "note": "[TNM, Tris-(hydroxymethyl) nitromethane]", "values": [{"measurement": "total growth / toxicity", "setting": "[2]", "value": "Dose dependent increases in toxicity and mutagenicity"}, {"measurement": "toxicity with FDH and NAD", "setting": "[2]", "value": "absent"}, {"measurement": "mutagenicity with FDH and NAD", "setting": "[2]; supplemented with FDH and NAD, without S-9", "value": "absent"}, {"measurement": "mutant frequency / mutagenicity", "setting": "[2]; without FDH/NAD, without S-9", "value": "Dose dependent increases in toxicity and mutagenicity"}, {"measurement": "formaldehyde released", "setting": "[3]", "value": "3 mols of formaldehyde per mol of TNM"}]}
